For this data set, the system named is Triticum aestivum plants. Conditions: 0.1% active ingredient, microdroplets on leaf blades, stage 32, outdoor; radioactivity measurements and autoradiography at different time points.

Procedure: Plant treatment: The application solution of the formulated test compound was applied in the form of microdroplets by syringe to the blades (adaxial surface) of the fuilly developed leaves. A volume of 20 μl each was applied to the 3rd or 4th leaf of the main shoot and of two tillers per plant (=a total of 60 μl application solution per plant.). Plants were kept under outdoor conditions and uptake and translocation of the test substance was analyzed at different stages.
Sampling of Leaf Tissue was Carried Out at the Following Time Points:
1) 1 week after treatment
2) 3 weeks after treatment
Processing of Collected Samples for quantitative Determinations:
For the sampling done at time points 1, 2 and 3, the treated leaf blades were cut off and the non-absorbed test compound was washed from the treated leaf blades by 2 consecutive short washes with water. Subsequently plants were dissected further, resulting in the following parts: […]
Radioactivity was quantified in the different plant parts and in the washing solutions and was calculated as equivalents of the labeled compounds. […]
For the sampling time point 4, radioactivity is determined in the grains only and is calculated as equivalents of the labeled test compound. […]
In addition to the quantitative radioactivity measurements the distribution of radioactivity is determined by autoradiography in plants of the sampling time points 1 and 2.

Turning to `CC(=O)N[C@@H](CCP(C)(=O)[O-])C(=O)[O-].[Na+].[Na+]` [N-acetyl PPT, dinatrium L-2-acetamido-4-methylphosphinato-butyrate-[3^14C, 4^14C]], the “foliar uptake in wheat tissue” value is on record as “good”; the “translocation of the test substance in the plant” value is “translocation through the phloem to the ears both in the main shoot and the tillers”.

Source of the values: patent publication US6384304B1, “Conditional sterility in wheat” (Plant Genetic Systems N.V., priority 1999, dated 2002).
